A word on the IC50: it is the concentration needed to halve the response being measured.

The values that follow come from patent publication US20090156668A1, “Ginkgolide Compounds, Compositions, And Extracts, And Uses Thereof” (priority 2004, published 2009).

Like-named read-outs stand apart in the source and are kept apart here.

Data set [1] deals with platelet activating factor (Homo sapiens, UniProt P25105). The following applies: analogs obtained as racemates, cited from earlier work.
Data set [2] deals with beta-amyloid (1-42)-induced inhibition of long-term potentiation in the CA1 region of hippocampal slices. Type of data set: cell-based, mice.
The conditions of data set [3]: read-out: anti-PAF IC50; analogs obtained as racemates; cited from earlier work.
For data set [4], the system named is rat hippocampal neuron cultures. Put plainly: neuroprotection assay: beta amyloid-induced neuronal cell death, viable cells by cell nuclei counting. The following applies: for number of viable cells (control = 100%): ginkgolide 1 μM + oligomeric amyloid beta, mean±SEM of 3 experiments.

platelet activating factor, sequence (P25105 whole entry): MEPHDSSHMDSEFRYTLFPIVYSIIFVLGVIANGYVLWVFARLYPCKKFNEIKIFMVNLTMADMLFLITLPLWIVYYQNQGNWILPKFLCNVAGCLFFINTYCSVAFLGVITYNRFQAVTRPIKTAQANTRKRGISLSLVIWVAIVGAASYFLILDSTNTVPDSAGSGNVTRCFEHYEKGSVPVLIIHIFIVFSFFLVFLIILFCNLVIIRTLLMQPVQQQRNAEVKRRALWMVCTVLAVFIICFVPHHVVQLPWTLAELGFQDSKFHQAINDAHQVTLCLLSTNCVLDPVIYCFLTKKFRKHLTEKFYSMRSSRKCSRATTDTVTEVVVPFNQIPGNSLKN

Turning to `CC1C(=O)OC2CC34C5CC(C(C)(C)C)C36C(=O)C(=O)OC6OC4(C(=O)O5)C21O` (centres unmarked) [10-keto analog], the IC50 in data set [1] (read-out: anti-PAF IC50) is 3900 nM.

With `CC(C)(C)[C@]1(O)CC2OC(=O)CC23C(=O)OC2OC(=O)[C@H](O)C231` (some centres unmarked) [BB, bilobalide], the “rescue of LTP (L-LTP) impairment in slices treated with Aβ” value (shortened to “rescue of LTP (L-LTP) impairment”) in data set [2] is on record as “does not rescue L-LTP impairment”.

Consider `C[C@@H]1C(=O)O[C@H]2CC34C5C[C@@H](C(C)(C)C)C36C(OC(=O)[C@@H]6O)OC4(C(=O)O5)[C@]21O` (some centres unmarked) [Ginkgolide A], for which, in data set [3], the IC50 was 1900 nM. The “number of viable cells (control = 100%)” value in data set [4] (24 h) amounted to 50.5±5.7%. Moreover, the “consistently able to prevent amyloid beta-induced cell death” value in data set [4] (ginkgolide 1 μM, 24 h) is “not”. Besides, the “rescue of LTP (L-LTP) impairment” value in data set [2] was “rescued the LTP to the same values recorded in control untreated slices”.

Turning to `C[C@@H]1C(=O)O[C@H]2CC34C5OC(=O)C3(OC3OC(=O)[C@H](O)C34[C@H](C(C)(C)C)[C@H]5O)[C@]21O` (some centres unmarked) [Ginkgolide J], in data set [4], the “consistently able to prevent amyloid beta-induced cell death” value is “consistently able to prevent cell death”, the “more cells than the other treatments” value is reported as “approximately 40%” and the “prevention of amyloid beta toxicity” value is “appeared to completely prevent amyloid beta toxicity”. In addition, the “number of viable cells (control = 100%)” value in data set [4] (24 h) is listed as 70.7±1.4%. In addition, the “rescue of LTP (L-LTP) impairment” value in data set [2] is “rescued the LTP to the same values recorded in control untreated slices”.

Turning to Ginkgolide B [GB], in data set [1] (read-out: anti-PAF activity IC50), the IC50 is 600 nM. The “rescue of LTP (L-LTP) impairment” value in data set [2] was “does not rescue L-LTP impairment”.

As to Ginkgolide C [GC], the “rescue of LTP (L-LTP) impairment” value in data set [2] is “does not rescue L-LTP impairment”.
